The values below come from paper PMC6631596, “Analgesic and Anti-Inflammatory Activities of Quercetin-3-methoxy-4′-glucosyl-7-glucoside Isolated from Indian Medicinal Plant Melothria heterophylla” (Medicines, 2019).

One experiment concerns the target T1, COX-1 (Ovis aries, UniProt P05979).
T1 construct: gene PTGS1; ovine COX-1
T1 sequence (P05979 25-600): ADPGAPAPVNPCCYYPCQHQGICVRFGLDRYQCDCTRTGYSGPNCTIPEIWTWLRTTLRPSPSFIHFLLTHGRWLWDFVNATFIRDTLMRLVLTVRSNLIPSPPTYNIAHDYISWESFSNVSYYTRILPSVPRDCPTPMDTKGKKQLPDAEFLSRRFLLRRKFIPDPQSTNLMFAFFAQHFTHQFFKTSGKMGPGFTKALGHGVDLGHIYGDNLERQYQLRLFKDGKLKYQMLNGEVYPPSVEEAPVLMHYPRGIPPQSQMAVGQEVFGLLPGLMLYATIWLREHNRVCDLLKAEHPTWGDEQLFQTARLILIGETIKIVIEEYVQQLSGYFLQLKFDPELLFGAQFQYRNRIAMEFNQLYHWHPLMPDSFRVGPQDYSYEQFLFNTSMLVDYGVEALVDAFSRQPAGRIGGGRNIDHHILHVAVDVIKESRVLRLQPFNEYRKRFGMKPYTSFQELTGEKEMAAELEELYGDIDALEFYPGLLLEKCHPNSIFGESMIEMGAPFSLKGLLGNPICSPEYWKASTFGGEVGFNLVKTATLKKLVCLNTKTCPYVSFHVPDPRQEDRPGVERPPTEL
Kind of experiment: Cayman COX inhibitor screening assay (prostaglandin ELISA). In kind it is biochemical. (ELISA stands for enzyme-linked immunosorbent assay.)

For another experiment, the target named is T2, COX-2 (Homo sapiens, UniProt P35354).
T2 construct: gene PTGS2; human recombinant COX-2
T2 sequence (P35354 18-604): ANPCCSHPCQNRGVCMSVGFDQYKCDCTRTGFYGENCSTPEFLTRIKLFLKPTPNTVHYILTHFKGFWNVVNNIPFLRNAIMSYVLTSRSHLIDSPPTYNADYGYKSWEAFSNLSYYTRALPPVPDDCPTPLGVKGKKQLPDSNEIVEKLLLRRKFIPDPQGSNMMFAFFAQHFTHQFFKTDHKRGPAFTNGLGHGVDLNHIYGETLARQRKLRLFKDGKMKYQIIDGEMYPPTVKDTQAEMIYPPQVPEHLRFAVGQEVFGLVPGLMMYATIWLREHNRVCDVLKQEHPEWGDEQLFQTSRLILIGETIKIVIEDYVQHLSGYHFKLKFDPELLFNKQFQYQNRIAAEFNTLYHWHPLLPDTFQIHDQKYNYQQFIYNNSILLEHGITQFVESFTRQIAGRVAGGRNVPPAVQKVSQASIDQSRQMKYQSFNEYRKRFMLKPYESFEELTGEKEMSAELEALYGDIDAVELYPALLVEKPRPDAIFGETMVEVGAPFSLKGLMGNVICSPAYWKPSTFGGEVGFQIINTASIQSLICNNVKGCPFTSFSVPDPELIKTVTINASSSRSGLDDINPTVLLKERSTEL
The experiment is described as above. In kind it is biochemical.

For orientation: IC50 means the concentration that gives 50% inhibition. The low end stands for higher potency, the high end for lower potency. Consider `COc1c(-c2ccc(O[C@@H]3O[C@H](CO)[C@@H](O)[C@H](O)[C@H]3O)c(O)c2)oc2cc(O[C@@H]3O[C@H](CO)[C@@H](O)[C@H](O)[C@H]3O)cc(O)c2c1=O` [quercetin-3-methoxy-4′-glucosyl-7-glucoside], for which the IC50 is 4.31 µM against COX-1 and 3.11 µM at COX-2.
